Among the data in patent US5081152A, “Azulene derivatives as thromboxane A2 and prostaglandin endoperoxide receptor antagonist” (Kotobuki Seiyaku Co., Ltd., priority 1989, dated 1992) are IC50 values, retold here.

pIC50: −log10 of the molar value.

The target in this assay is T1, Thromboxane A2 receptor (Rattus norvegicus, UniProt P34978).
T1 sequence (P34978 1-341): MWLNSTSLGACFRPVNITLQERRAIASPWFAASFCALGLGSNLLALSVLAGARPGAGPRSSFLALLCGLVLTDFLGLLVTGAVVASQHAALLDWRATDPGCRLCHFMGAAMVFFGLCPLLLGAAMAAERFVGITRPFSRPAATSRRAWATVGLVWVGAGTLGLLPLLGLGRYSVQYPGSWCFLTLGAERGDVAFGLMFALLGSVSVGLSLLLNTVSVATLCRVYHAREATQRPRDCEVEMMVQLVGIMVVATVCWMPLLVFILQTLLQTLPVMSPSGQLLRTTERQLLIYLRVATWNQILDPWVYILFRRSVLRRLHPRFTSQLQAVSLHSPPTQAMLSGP
Kind of assay: Thromboxane A2 receptor antagonistic action (inhibitory action of U-46619-induced contractions of rat aortic strips). The assay is classed as cell-based. Conditions: isolated helical strips of rat aorta precontracted with 3×10^-8 M U-46619; read-out: IC50 (the concentrations which inhibited the contraction by 50%).
For the compound `CC(C)c1ccc2c(C/C=C\CNS(=O)(=O)c3ccccc3)cc(C(=O)O)c-2cc1` [Compound 68, 6-isopropyl-3-[4-(benzenesulfonylamino)-cis-2-butenyl]-azulene-1-carboxylic acid], the pIC50 is 7.28.
In the case of `CC(C)c1ccc2c(CCCCCCNS(=O)(=O)c3ccccc3)cc(C(=O)O)c-2cc1` [Compound 19, 6-Isopropyl-3-[6-(benzenesulfonylamino)hexyl]-azulene-1-carboxylic acid], the pIC50 is 7.15.
`CC(C)c1ccc2c(C[C@@H](C)CCNS(=O)(=O)c3ccccc3)cc(C(=O)O)c-2cc1` [Compound 57, 6-isopropyl-3-[(2R)-methyl-4-(benzenesulfonylamino)butyl]-azulene-1-carboxylic acid]: the pIC50 is 7.44.
With `CC(C)c1ccc2c(CCCCNS(=O)(=O)c3ccc(I)cc3)cc(C(=O)O)c-2cc1` [Compound 28, 6-Isopropyl-3-[4-(4-iodobenzenesulfonylamino)butyl]-azulene-1-carboxylic acid], the pIC50 is 8.29.
